# Assay results from patent US10294202B2, “Pyrrolidinones as herbicides” (FMC Corporation, priority 2013, dated 2019).
# Key:
# giant foxtail = experiment: Test A pre-/postemergence herbicide test; type: in vivo, Setaria faberii; details: for Foxtail, Giant plant response rating: Preemergence, visual rating on 0 to 100 scale (0 no effect, 100 complete control)
# How it was run: (§1)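 Planted in loam–sand blend; treated the same day preemergence by directed soil spray, while separately grown plants at one- to two-leaf stage got postemergence spray. Compared visually with untreated controls after approximately 10 days; 100 means complete control.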
# wheat = experiment: Test A pre-/postemergence herbicide test; type: in vivo, Triticum aestivum; details: for Wheat plant response rating: Preemergence, visual rating on 0 to 100 scale (0 no effect, 100 complete control)
# How it was run: as §1
# nutsedge, yellow = experiment: Test C pre-/postemergence herbicide test; type: in vivo, Cyperus esculentus
# Text: (§2) Seeds of plant species selected from blackgrass (Alopecurus myosuroides), ryegrass, Italian (Italian ryegrass, Lolium multiflorum), wheat (winter wheat, Triticum aestivum), galium (catchweed bedstraw, Galium aparine), corn (Zea mays), crabgrass, large (large crabgrass, Digitaria sanguinalis), foxtail, giant (giant foxtail, Setaria faberii), johnsongrass (Sorghum halepense), lambsquarters (Chenopodium album), morningglory (Ipomoea coccinea), nutsedge, yellow (yellow nutsedge, Cyperus esculentus), pigweed (Amaranthus retroflexus), ragweed (common ragweed, Ambrosia elatior), soybean (Glycine max), barnyardgrass (Echinochloa crus-galli), oilseed rape (Brassica napus), waterhemp (common waterhemp, Amaranthus rudis), kochia (Kochia scoparia), oat, wild (wild oat, Avena fatua), surinam grass (Brachiaria decumbens), foxtail, green (green foxtail, Setaria viridis), goosegrass (Eleusine indica), bromegrass, downy (downy bromegrass, Bromus tectorum), nightshade (eastern black nightshade, Solanum ptycanthum), cocklebur (common cocklebur, Xanthium strumarium), cupgrass, woolly (woolly cupgrass, Eriochloa villosa), bermudagrass (Cynodon dactylon), sunflower, (common oilseed sunflower, Helianthus annuus), Russian thistle (Salsola kali) and velvetleaf (Abutilon theophrasti) were planted into a blend of loam soil and sand and treated preemergence with test chemicals formulated in a non-phytotoxic solvent mixture which included a surfactant. At the same time, plants selected from these crop and weed species and also barley (winter barley, Hordeum vulgare), […]), chickweed (common chickweed, Stellaria media), deadnettle (henbit deadnettle, Lamium amplexicaule), and canarygrass (littleseed canarygrass, Phalaris minor) were planted in pots containing Redi-Earth® planting medium (Scotts Company, 14111 Scottslawn Road, Marysville, Ohio 43041) comprising spaghnum peat moss, vermiculite, wetting agent and starter nutrients and treated with postemergence applications of test chemicals formulated in the same manner. Plants ranged in height from 2 to 18 cm (1- to 4-leaf stage) for postemergence treatments. Treated plants and controls were maintained in a greenhouse for 13 to 15 days, after which time all species were compared to controls and visually evaluated. Plant response ratings, summarized in Table C, are based on a scale of 0 to 100 where 0 is no effect and 100 is complete control. A dash (-) response means no test result.
# crabgrass, large = experiment: Test C pre-/postemergence herbicide test; type: in vivo, Digitaria sanguinalis
# Text: as §2
# pigweed = experiment: Test C pre-/postemergence herbicide test; type: in vivo, Amaranthus retroflexus
# Text: as §2
# blackgrass = experiment: Test C pre-/postemergence herbicide test; type: in vivo, Alopecurus myosuroides
# Text: as §2
# oilseed rape = experiment: Test C pre-/postemergence herbicide test; type: in vivo, Brassica napus
# Text: as §2
# lambsquarters = experiment: Test C pre-/postemergence herbicide test; type: in vivo, Chenopodium album
# Text: as §2
# barnyardgrass = experiment: Test C pre-/postemergence herbicide test; type: in vivo, Echinochloa crus-galli; details: for Barnyardgrass plant response rating: scale 0 to 100, 0 is no effect and 100 is complete control
# Text: as §2
# [1] = Postemergence, 125 g ai/ha, 0 to 100 scale, 0 no effect, 100 complete control
# [2] = Postemergence, 500 g ai/ha, 0 to 100 scale (0 no effect, 100 complete control)
# [3] = preemergence, 500 g ai/ha, 0 to 100 scale
# [4] = Preemergence, 62 g ai/ha, scale 0 to 100
# [5] = Preemergence, 125 g ai/ha, scale 0 to 100 (0 no effect, 100 complete control)
# [6] = Preemergence, 31 g ai/ha, scale 0 to 100 (0 no effect, 100 complete control)
# [7] = Preemergence, 31 g ai/ha, scale 0 to 100, 0 is no effect and 100 is complete control
# [8] = Preemergence, 62 g ai/ha, scale 0 to 100 (0 no effect, 100 complete control)
# [9] = Preemergence, 16 g ai/ha, scale 0 to 100
# [10] = 125 g ai/ha, visual rating, 0 to 100 scale, 0 no effect, 100 complete control, approximately 10 days, preemergence
# [11] = Postemergence, 125 g ai/ha, 0 to 100 scale, 0 is no effect, 100 is complete control
# [12] = preemergence, 500 g ai/ha, 0 to 100 scale, 0 is no effect and 100 is complete control
# [13] = Postemergence, 31 g ai/ha, scale 0 to 100 (0 no effect, 100 complete control)
# [14] = Postemergence, 62 g ai/ha, scale 0 (no effect) to 100 (complete control)
# [15] = Postemergence, 125 g ai/ha, scale 0 to 100 (0 no effect, 100 complete control)
# [16] = Postemergence, 250 g ai/ha, scale 0 to 100 (0 no effect, 100 complete control)
structure (smiles),measurement,setting,value
O=C1NCC(c2cccc(C(F)(F)F)c2)C1C(=O)Nc1ccccc1F (racemic) [Compound 3],"Plant response rating, Foxtail, Giant",giant foxtail; [1],60
same,"Plant response rating, Foxtail, Giant",giant foxtail; [2],80
same,"Foxtail, Giant plant response rating",giant foxtail; 125 g ai/ha,90
same,"Plant response rating, Foxtail, Giant",giant foxtail; [3],90
same,"Plant response rating, Wheat",wheat; [2],50
same,Wheat plant response rating,wheat; 125 g ai/ha,40
same,"Plant response rating, Wheat",wheat; [3],60
O=C1NCC(c2ccc(F)c(F)c2)C1C(=O)Nc1cccc(F)c1 (racemic) [Compound 12],"Plant response rating, Foxtail, Giant",giant foxtail; [1],60
same,"Plant response rating, Foxtail, Giant",giant foxtail; [2],80
same,"Foxtail, Giant plant response rating",giant foxtail; 125 g ai/ha,70
same,"Plant response rating, Foxtail, Giant",giant foxtail; [3],90
same,"Plant response rating, Wheat",wheat; [1],0
same,"Plant response rating, Wheat",wheat; [2],20
same,Wheat plant response rating,wheat; 125 g ai/ha,0
same,"Plant response rating, Wheat",wheat; [3],20
O=C1NCC(c2ccc(F)cc2)C1C(=O)Nc1ccccc1F (racemic) [Compound 16],"Plant response rating, Nutsedge, Yellow","nutsedge, yellow; [4]",0
same,"Plant response rating, Nutsedge, Yellow","nutsedge, yellow; [5]",0
same,"Crabgrass, Large plant response rating","crabgrass, large; [6]",95
same,"Plant response rating, Crabgrass, Large","crabgrass, large; [4]",95
same,"Plant response rating, Crabgrass, Large","crabgrass, large; [5]",100
same,"Plant response rating, Crabgrass, Large","crabgrass, large; Preemergence, 250 g ai/ha, scale 0 to 100 (0 no effect, 100 complete control)",100
same,"Plant response rating, Foxtail, Giant",giant foxtail; [1],60
same,"Plant response rating, Foxtail, Giant",giant foxtail; [2],90
same,"Foxtail, Giant plant response rating",giant foxtail; 125 g ai/ha,90
same,"Plant response rating, Foxtail, Giant",giant foxtail; [3],90
same,"Plant response rating, Pigweed",pigweed; [4],0
same,"Plant response rating, Pigweed",pigweed; [5],0
same,Blackgrass plant response rating,blackgrass; [6],0
same,"Plant response rating, Blackgrass",blackgrass; [4],5
same,"Plant response rating, Blackgrass",blackgrass; [5],10
same,"Plant response rating, Wheat",wheat; [1],20
same,"Plant response rating, Wheat",wheat; [2],50
same,Wheat plant response rating,wheat; 125 g ai/ha,0
same,"Plant response rating, Wheat",wheat; [3],0
O=C1NCC(c2cccc(C(F)(F)F)c2)C1C(=O)Nc1ccccc1Cl (racemic) [Compound 189],"Nutsedge, Yellow plant response rating","nutsedge, yellow; [7]",0
same,"Nutsedge, Yellow plant response rating","nutsedge, yellow; [8]",0
same,"Plant response rating, Nutsedge, Yellow","nutsedge, yellow; [5]",0
same,"Plant response rating, Nutsedge, Yellow","nutsedge, yellow; [9]",0
same,"Crabgrass, Large plant response rating","crabgrass, large; [7]",95
same,"Crabgrass, Large plant response rating","crabgrass, large; [8]",95
same,"Plant response rating, Crabgrass, Large","crabgrass, large; [5]",98
same,"Plant response rating, Crabgrass, Large","crabgrass, large; [9]",90
same,Oilseed Rape plant response rating,oilseed rape; [7],0
same,Oilseed Rape plant response rating,oilseed rape; [8],0
same,"Plant response rating, Oilseed Rape",oilseed rape; [5],20
same,"Plant response rating, Oilseed Rape",oilseed rape; [9],0
same,"Plant response rating, Foxtail, Giant",giant foxtail; [10],90
same,"Plant response rating, Foxtail, Giant",giant foxtail; [11],70
same,"Foxtail, Giant plant response rating (0 to 100 scale, 0 is no effect, 100 is complete control)","giant foxtail; Postemergence, 500 g ai/ha",90
same,"Plant response rating, Foxtail, Giant",giant foxtail; [12],90
same,Lambsquarters plant response rating,lambsquarters; [7],0
same,Lambsquarters plant response rating,lambsquarters; [8],0
same,"Plant response rating, Lambsquarters",lambsquarters; [5],5
same,"Plant response rating, Lambsquarters",lambsquarters; [9],0
same,Pigweed plant response rating,pigweed; [7],0
same,Pigweed plant response rating,pigweed; [8],0
same,"Plant response rating, Pigweed",pigweed; [5],0
same,"Plant response rating, Pigweed",pigweed; [9],0
same,Blackgrass plant response rating,blackgrass; [7],10
same,"Plant response rating, Blackgrass",blackgrass; [4],50
same,"Plant response rating, Blackgrass",blackgrass; [5],55
same,"Plant response rating, Blackgrass",blackgrass; [9],0
same,"Plant response rating, Wheat",wheat; [10],0
same,"Plant response rating, Wheat",wheat; [11],0
same,"Wheat plant response rating (0 to 100 scale, 0 is no effect, 100 is complete control)","wheat; Postemergence, 500 g ai/ha",0
same,"Plant response rating, Wheat",wheat; [12],20
same,Barnyardgrass plant response rating,"barnyardgrass; Preemergence, 31 g ai/ha",85
same,"Plant response rating, Barnyardgrass",barnyardgrass; [4],90
same,"Plant response rating, Barnyardgrass",barnyardgrass; [5],90
same,"Plant response rating, Barnyardgrass",barnyardgrass; [9],45
O=C1NCC(c2cccc(C(F)(F)F)c2)C1C(=O)Nc1ccc(F)cc1F (racemic) [Compound 207],"Plant response rating, Nutsedge, Yellow","nutsedge, yellow; [13]",10
same,"Plant response rating, Nutsedge, Yellow","nutsedge, yellow; [14]",0
same,"Plant response rating, Nutsedge, Yellow","nutsedge, yellow; [15]",0
same,"Plant response rating, Nutsedge, Yellow","nutsedge, yellow; [16]",0
same,"Nutsedge, Yellow plant response rating","nutsedge, yellow; [7]",0
same,"Nutsedge, Yellow plant response rating","nutsedge, yellow; [8]",0
same,"Plant response rating, Nutsedge, Yellow","nutsedge, yellow; [5]",0
same,"Plant response rating (scale of 0 to 100), Nutsedge, Yellow","nutsedge, yellow; Preemergence, 250 g ai/ha",0
same,"Plant response rating, Crabgrass, Large","crabgrass, large; [13]",10
same,"Plant response rating, Crabgrass, Large","crabgrass, large; [14]",15
same,"Plant response rating, Crabgrass, Large","crabgrass, large; [15]",40
same,"Plant response rating, Crabgrass, Large","crabgrass, large; [16]",65
same,"Crabgrass, Large plant response rating","crabgrass, large; [7]",90
same,"Crabgrass, Large plant response rating","crabgrass, large; [8]",90
same,"Plant response rating, Crabgrass, Large","crabgrass, large; [5]",95
same,"Plant response rating (scale of 0 to 100), Crabgrass, Large","crabgrass, large; Preemergence, 250 g ai/ha",95
same,"Plant response rating, Oilseed Rape",oilseed rape; [13],0
same,"Plant response rating, Oilseed Rape",oilseed rape; [14],0
same,"Plant response rating, Oilseed Rape",oilseed rape; [15],10
same,"Plant response rating, Oilseed Rape",oilseed rape; [16],30
same,Oilseed Rape plant response rating,oilseed rape; [7],0
same,Oilseed Rape plant response rating,oilseed rape; [8],0
same,"Plant response rating, Oilseed Rape",oilseed rape; [5],0
same,"Plant response rating (scale of 0 to 100), Oilseed Rape","oilseed rape; Preemergence, 250 g ai/ha",80
same,"Plant response rating, Foxtail, Giant",giant foxtail; [10],90
same,"Plant response rating, Foxtail, Giant",giant foxtail; [11],90
same,"Foxtail, Giant plant response rating (0 to 100 scale, 0 is no effect, 100 is complete control)","giant foxtail; Postemergence, 500 g ai/ha",90
same,"Plant response rating, Foxtail, Giant",giant foxtail; [12],90
same,"Plant response rating, Lambsquarters",lambsquarters; [13],0
same,"Plant response rating, Lambsquarters",lambsquarters; [14],10
same,"Plant response rating, Lambsquarters",lambsquarters; [15],35
same,"Plant response rating, Lambsquarters",lambsquarters; [16],15
same,Lambsquarters plant response rating,lambsquarters; [7],0
same,Lambsquarters plant response rating,lambsquarters; [8],0
same,"Plant response rating, Lambsquarters",lambsquarters; [5],60
same,"Plant response rating (scale of 0 to 100), Lambsquarters","lambsquarters; Preemergence, 250 g ai/ha",70
same,"Plant response rating, Pigweed",pigweed; [13],0
same,"Plant response rating, Pigweed",pigweed; [14],10
same,"Plant response rating, Pigweed",pigweed; [15],10
same,"Plant response rating, Pigweed",pigweed; [16],20
same,Pigweed plant response rating,pigweed; [7],0
same,Pigweed plant response rating,pigweed; [8],0
same,"Plant response rating, Pigweed",pigweed; [5],0
same,"Plant response rating (scale of 0 to 100), Pigweed","pigweed; Preemergence, 250 g ai/ha",0
same,"Plant response rating, Blackgrass",blackgrass; [13],0
same,"Plant response rating, Blackgrass",blackgrass; [14],0
same,"Plant response rating, Blackgrass",blackgrass; [15],0
same,"Plant response rating, Blackgrass",blackgrass; [16],0
same,Blackgrass plant response rating,blackgrass; [7],0
same,"Plant response rating, Blackgrass",blackgrass; [4],80
same,"Plant response rating, Blackgrass",blackgrass; [5],85
same,"Plant response rating (scale of 0 to 100), Blackgrass","blackgrass; Preemergence, 250 g ai/ha",90
same,"Plant response rating, Wheat",wheat; [11],0
same,"Wheat plant response rating (0 to 100 scale, 0 is no effect, 100 is complete control)","wheat; Postemergence, 500 g ai/ha",60
same,"Plant response rating, Barnyardgrass",barnyardgrass; [13],0
same,"Plant response rating, Barnyardgrass",barnyardgrass; [14],10
same,"Plant response rating, Barnyardgrass",barnyardgrass; [15],35
same,"Plant response rating, Barnyardgrass",barnyardgrass; [16],65
same,Barnyardgrass plant response rating,"barnyardgrass; Preemergence, 31 g ai/ha",75
same,"Plant response rating, Barnyardgrass",barnyardgrass; [4],85
same,"Plant response rating, Barnyardgrass",barnyardgrass; [5],85
same,"Plant response rating (scale of 0 to 100; 0 is no effect, 100 is complete control), Barnyardgrass","barnyardgrass; Preemergence, 250 g ai/ha",95
